Five molecules from the NIST ThermoML archive (doi:10.1021/je034259j) can be followed below.

What is called mass density is the mass of a sample divided by its volume. The term vapor or sublimation pressure denotes the pressure of vapour in equilibrium with the condensed phase.

For the data set the following is noted: Liquid; for mass density: 298.15 K; for mass density / molar volume: 101.33 kPa; for molar volume / vapor or sublimation pressure: 313.15 K; for molar volume: Vibrating tube method; for vapor or sublimation pressure: Ebulliometric method (Recirculating still).

Numbers after ± are expanded uncertainties.

Regarding `ClCCCl` [1,2-dichloroethane], the mass density is 1246.59 ± 0.41 kg/m3, the molar volume is listed as 8.1e-05 ± 1e-06 m3/mol and the “vapor or sublimation pressure” value was found to be 21.05 ± 0.2 kPa.
In the case of `ClCCBr` [1-bromo-2-chloroethane], the mass density was 1727.88 ± 1.9 kg/m3, the molar volume is on record as 8.4e-05 ± 1e-06 m3/mol and the “vapor or sublimation pressure” value is on record as 8.91 ± 0.1 kPa.
In the same order, the values of `ClCBr` [bromochloromethane] are 1924.88 ± 1.3 kg/m3, 6.9e-05 ± 1e-06 m3/mol and 37.28 ± 0.43 kPa.
In the same order, the values of `BrCBr` [dibromomethane] are 2478.37 ± 2.3 kg/m3, 7.1e-05 ± 1e-06 m3/mol and 13.01 ± 0.15 kPa.
The matching figures for `CCOC(C)=O` [ethyl acetate]: 894.97 ± 0.27 kg/m3, 0.000101 ± 1e-06 m3/mol and 25.3 ± 0.2 kPa.
